Laboratory results reported in US9676789B2, “Aminated derivative of homoharringtonine, preparation method therefor, and application thereof” (HANGZHOU BENSHENG PHARMACEUTICAL CO., LTD., priority 2011, dated 2017).
In brackets after ≈: the same amount, converted by molar mass.

Experiments:
[1] = test system: PANC-1 (pancreatic cancer); test: MTT solid tumor cell growth inhibition, 72 h; assay type: cell-based, human; conditions: Homo sapiens, PANC-1, 72 h; for IC50: read-out: IC50; for IC90: read-out: IC90
Procedure, shortened: (§1)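 Cells seeded at 4000 per well in DMEM high glucose with 10% FBS were grown 24 h at 37° C, 5% CO2, then exposed to homoharringtonine derivatives at various concentrations for 72 h. Viable cells were measured by MTT, and viability (%) was expressed relative to untreated controls set at 100%.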

[2] = test system: U87 MG (malignant glioma cell); test: MTT solid tumor cell growth inhibition, 72 h; assay type: cell-based, human; conditions: Homo sapiens, U-87 MG; for IC50: read-out: IC50; for IC90: read-out: IC90
Procedure, shortened: as §1

[3] = test system: SK-OV-3 (ovarian cancer cell); test: MTT solid tumor cell growth inhibition, 72 h; assay type: cell-based, human; conditions: Homo sapiens, SK-OV-3, 72 h; for IC50: read-out: IC50; for IC90: read-out: IC90
Procedure, shortened: as §1

[4] = test system: PC-3 (prostate cancer); test: MTT solid tumor cell growth inhibition, 72 h; assay type: cell-based, human; conditions: Homo sapiens, PC-3, 72 h; for IC50: read-out: IC50; for IC90: read-out: IC90
Procedure, shortened: as §1

[5] = test system: CaES-17 (esophageal cancer cell); test: MTT solid tumor cell growth inhibition, 72 h; assay type: cell-based, human; conditions: Homo sapiens, CaEs17, CaES-17, 72 h; for IC50: read-out: IC50; for IC90: read-out: IC90
Procedure, shortened: as §1

[6] = test system: CNE (nasopharyngeal carcinoma cell); test: MTT solid tumor cell growth inhibition, 72 h; assay type: cell-based, human; conditions: Homo sapiens; for IC50: read-out: IC50; for IC90: read-out: IC90
Procedure, shortened: as §1

[7] = test system: MG63 (osteosarcoma); test: MTT solid tumor cell growth inhibition, 72 h; assay type: cell-based, human; conditions: Homo sapiens, MG 63, 72 h; for IC50: read-out: IC50; for IC90: read-out: IC90
Procedure, shortened: as §1

[8] = test system: A549, PANC-1, Becap37, MG63, Huh7, RKO, Hela, CaES-17, CNE, Hep-2, PC-3 and SK-OV-3; test: Anti-human solid tumor effect, summary over cell lines; assay type: cell-based; conditions: result in words, summary of Table 2
Experimental: Human solid tumor cell lines: Hep-2 ([…]), A549 (human lung cancer), CaES-17 (esophageal cancer cell), PC-3 (prostate cancer), CNE (nasopharyngeal carcinoma cell), and SK-OV-3 (ovarian cancer cell), all of which are purchased from China Center For Type Culture Collection; RKO (human colon adenocarcinoma cell), MGC 803 (human gastric cancer cell), MG63 (osteosarcoma) and U87 MG (malignant glioma cell), all of which are purchased from Fuxiang Bio-tech Co. Ltd., Shanghai, China; PANC-1 (pancreatic cancer), Huh7 (human liver cancer cell), Becap37 (human breast cancer cell), and Hela (human cervical cancer cell), all of which are donated by Cancer Research Institute of Zhejiang University, China.
Obtaining 4000 well-growing human solid tumor cells and inoculating them into wells of a 96-well cell culture plate. The culture medium is DMEM High Glucose cell culture medium containing 10% fetal bovine serum. The plate is placed in a carbon dioxide cell incubator (5% CO2) at 37° C. and incubating for 24 hours. After adding the homoharringtonine derivatives of different concentration and mixing uniformly, the plate is placed in a carbon dioxide cell incubator (5% CO2) at 37° C. and incubating for 72 hours. Then the viable cell concentration is determined by the MTT method and the cell viability (%) after drug treatment is calculated. In this experiment, the cell viability of control group (not treated with any compound) is set as 100%.

[9] = test system: Kasumi-1 (acute myeloid leukemia M2 type, AML-M2); test: MTT leukemia cell growth inhibition, 72 h; assay type: cell-based, human; conditions: Homo sapiens, Kasumi-1, 72 h; for IC50: read-out: IC50; for IC90: read-out: IC90
Procedure, shortened: (§2)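 Cells were seeded at 6000 per well in RPMI-1640 with 10% FBS and exposed to homoharringtonine derivatives at various concentrations for 72 h at 37°C, 5% CO2. Viable cells were measured by MTT. Untreated controls were set as 100% viability.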

[10] = test system: NB4 (acute promyelocytic leukemia, AML); test: MTT leukemia cell growth inhibition, 72 h; assay type: cell-based, human; conditions: Homo sapiens, NB4, 72 h; for IC50: read-out: IC50; for IC90: read-out: IC90
Procedure, shortened: as §2

[11] = test system: K562/adr (drug-resistant, chronic myeloid leukemia, CML); test: MTT leukemia cell growth inhibition, 72 h; assay type: cell-based, human; conditions: Homo sapiens, K562/Adr; for IC50: read-out: IC50; for IC90: read-out: IC90
Procedure, shortened: as §2

[12] = test system: H9 (acute lymphoblastic leukemia, ALL); test: MTT leukemia cell growth inhibition, 72 h; assay type: cell-based, human; conditions: Homo sapiens, H9, 72 h; for IC50: read-out: IC50; for IC90: read-out: IC90
Procedure, shortened: as §2

[13] = test system: Jurkat (acute lymphoblastic leukemia, ALL); test: MTT leukemia cell growth inhibition, 72 h; assay type: cell-based, human; conditions: Homo sapiens; for IC50: read-out: IC50; for IC90: read-out: IC90
Procedure, shortened: as §2

[14] = test system: Huh7 (human liver cancer cell); test: MTT solid tumor cell growth inhibition, 72 h; assay type: cell-based; conditions: Homo sapiens, Huh-7, Huh7, 72 h; for IC50: read-out: IC50; for IC90: read-out: IC90
Procedure, shortened: as §1

[15] = test system: Hela (human cervical cancer cell); test: MTT solid tumor cell growth inhibition, 72 h; assay type: cell-based; conditions: Homo sapiens, HeLa; for IC50: read-out: IC50; for IC90: read-out: IC90
Procedure, shortened: as §1

[16] = test system: Becap37 (human breast cancer cell); test: MTT solid tumor cell growth inhibition, 72 h; assay type: cell-based; conditions: Homo sapiens, Becap37, 72 h; for IC50: read-out: IC50; for IC90: read-out: IC90
Procedure, shortened: as §1

[17] = test system: RKO (human colon adenocarcinoma cell); test: MTT solid tumor cell growth inhibition, 72 h; assay type: cell-based; conditions: Homo sapiens; for IC50: read-out: IC50; for IC90: read-out: IC90
Procedure, shortened: as §1

[18] = test system: A549 (human lung cancer); test: MTT solid tumor cell growth inhibition, 72 h; assay type: cell-based; conditions: Homo sapiens, A549, 72 h; for IC50: read-out: IC50; for IC90: read-out: IC90
Procedure, shortened: as §1

[19] = test system: Hep-2 (human hepatocellular carcinoma); test: MTT solid tumor cell growth inhibition, 72 h; assay type: cell-based; conditions: Homo sapiens, HEp-2, Hep2, 72 h; for IC50: read-out: IC50; for IC90: read-out: IC90
Procedure, shortened: as §1

[20] = test system: MGC 803 (human gastric cancer cell); test: MTT solid tumor cell growth inhibition, 72 h; assay type: cell-based; conditions: Homo sapiens, MGC 803, 72 h; for IC50: read-out: IC50; for IC90: read-out: IC90
Procedure, shortened: as §1

[21] = test system: RPMI8226 (multiple myeloma); test: MTT multiple myeloma cell growth inhibition, 72 h; assay type: cell-based, human; conditions: Homo sapiens, RPMI-8226, RPMI8226, 72 h; for IC50: read-out: IC50; for IC90: read-out: IC90
Procedure, shortened: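 Viability determined by MTT after 72 h of compound exposure at 37° C under 5% CO2. Myeloma RPMI8226 cells were seeded at 6000 per well in 1640 medium containing 10% fetal bovine serum.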

COC1=C[C@]23CCCN2CCc2cc4c(cc2[C@@H]3[C@@H]1OC(=O)[C@@](O)(CCCC(C)(C)O)CC(=O)N1CCN(c2ccc(F)cc2)CC1)OCO4 [BS-HH-046, O-3-[(2R)-2,6-dihydroxy-2-(2′-(4-(4-fluorophenyl)piperazinyl)-2′-oxoethyl)-6-methylheptanoyl]cephalotaxine]
IC50 [1]: 0.45 µg/mL (≈ 0.649 µM)
IC90 [1]: > 16 µg/mL
IC50 [2]: 0.25 µg/mL (≈ 0.36 µM)
IC90 [2]: > 16 µg/mL
IC50 [3]: 1.89 µg/mL (≈ 2.72 µM)
IC90 [3]: > 16 µg/mL
IC50 [4]: 0.78 µg/mL (≈ 1.12 µM)
IC90 [4]: > 16 µg/mL
IC50 [5]: 0.98 µg/mL (≈ 1.41 µM)
IC90 [5]: 16 µg/mL (≈ 23.1 µM)
IC50 [6]: 0.3 µg/mL (≈ 0.432 µM)
IC90 [6]: 16 µg/mL (≈ 23.1 µM)
IC50 [7]: 0.23 µg/mL (≈ 0.332 µM)
IC90 [7]: > 16 µg/mL
anti-A549, anti-PANC-1, anti-Becap37, anti-MG63, anti-Huh7, anti-RKO, anti-Hela, anti-CaES-17, anti-CNE, anti-Hep-2, anti-PC-3 and anti-SK-OV-3 effect [8]: strong
IC50 [9]: 0.26 µg/mL (≈ 0.375 µM)
IC90 [9]: 2.26 µg/mL (≈ 3.26 µM)
IC50 [10]: 0.19 µg/mL (≈ 0.274 µM)
IC90 [10]: 0.5 µg/mL (≈ 0.721 µM)
IC50 [11]: 14.5 µg/mL (≈ 20.9 µM)
IC90 [11]: > 16 µg/mL
IC50 [12]: 0.5 µg/mL (≈ 0.721 µM)
IC90 [12]: 7.84 µg/mL (≈ 11.3 µM)
IC50 [13]: 0.32 µg/mL (≈ 0.461 µM)
IC90 [13]: 15.2 µg/mL (≈ 21.9 µM)
IC50 [14]: 1.37 µg/mL (≈ 1.97 µM)
IC90 [14]: > 16 µg/mL
IC50 [15]: 1.56 µg/mL (≈ 2.25 µM)
IC90 [15]: > 16 µg/mL
IC50 [16]: 0.4 µg/mL (≈ 0.577 µM)
IC90 [16]: > 16 µg/mL
IC50 [17]: 0.054 µg/mL (≈ 0.0778 µM)
IC90 [17]: 0.93 µg/mL (≈ 1.34 µM)
IC50 [18]: 0.84 µg/mL (≈ 1.21 µM)
IC90 [18]: > 16 µg/mL
IC50 [19]: 0.27 µg/mL (≈ 0.389 µM)
IC90 [19]: > 16 µg/mL
IC50 [20]: 0.39 µg/mL (≈ 0.562 µM)
IC90 [20]: 8.28 µg/mL (≈ 11.9 µM)
IC50 [21]: 0.17 µg/mL (≈ 0.245 µM)
IC90 [21]: 0.72 µg/mL (≈ 1.04 µM)

COC(=O)C[C@](O)(CCCC(C)(C)O)C(=O)O[C@@H]1C(OC)=C[C@]23CCCN2CCc2cc4c(cc2[C@H]13)OCO4 [HHT, O-3-[(2R)-2,6-dihydroxy-2-(2′-methoxy-2′-oxoethyl)-6-methylheptanoyl]cephalotaxine, reference compound]
IC50 [1]: 0.035 µg/mL (≈ 0.0641 µM)
IC90 [1]: > 16 µg/mL
IC50 [2]: 0.004 µg/mL (≈ 0.00733 µM)
IC90 [2]: 0.018 µg/mL (≈ 0.033 µM)
IC50 [3]: 0.003 µg/mL (≈ 0.0055 µM)
IC90 [3]: 0.009 µg/mL (≈ 0.0165 µM)
IC50 [4]: 0.004 µg/mL (≈ 0.00733 µM)
IC90 [4]: 0.049 µg/mL (≈ 0.0898 µM)
IC50 [5]: 0.037 µg/mL (≈ 0.0678 µM)
IC90 [5]: > 16 µg/mL
IC50 [6]: 0.038 µg/mL (≈ 0.0696 µM)
IC90 [6]: > 16 µg/mL
IC50 [7]: 0.01 µg/mL (≈ 0.0183 µM)
IC90 [7]: 1.2 µg/mL (≈ 2.2 µM)
IC50 [9]: 0.005 µg/mL (≈ 0.00916 µM)
IC90 [9]: 0.024 µg/mL (≈ 0.044 µM)
IC50 [10]: 0.006 µg/mL (≈ 0.011 µM)
IC90 [10]: 0.012 µg/mL (≈ 0.022 µM)
IC50 [11]: 0.035 µg/mL (≈ 0.0641 µM)
IC90 [11]: 0.98 µg/mL (≈ 1.8 µM)
IC50 [12]: 0.02 µg/mL (≈ 0.0367 µM)
IC90 [12]: 0.046 µg/mL (≈ 0.0843 µM)
IC50 [13]: 0.007 µg/mL (≈ 0.0128 µM)
IC90 [13]: 16 µg/mL (≈ 29.3 µM)
IC50 [14]: 0.004 µg/mL (≈ 0.00733 µM)
IC90 [14]: 0.049 µg/mL (≈ 0.0898 µM)
IC50 [15]: 0.019 µg/mL (≈ 0.0348 µM)
IC90 [15]: 16 µg/mL (≈ 29.3 µM)
IC50 [16]: 0.01 µg/mL (≈ 0.0183 µM)
IC90 [16]: 11.6 µg/mL (≈ 21.2 µM)
IC50 [17]: 0.003 µg/mL (≈ 0.0055 µM)
IC90 [17]: 0.009 µg/mL (≈ 0.0165 µM)
IC50 [18]: 0.03 µg/mL (≈ 0.055 µM)
IC90 [18]: > 16 µg/mL
IC50 [19]: 0.014 µg/mL (≈ 0.0257 µM)
IC90 [19]: > 16 µg/mL
IC50 [20]: 0.016 µg/mL (≈ 0.0293 µM)
IC90 [20]: 0.2 µg/mL (≈ 0.367 µM)
IC50 [21]: 0.006 µg/mL (≈ 0.011 µM)
IC90 [21]: 0.027 µg/mL (≈ 0.0495 µM)
